Reference: patent US11840686B2, “Modulation of prekallikrein (PKK) expression” (Ionis Pharmaceuticals, Inc., priority 2013, dated 2023)
Strand notation (5' to 3'): a small letter for the sugar, then the base; units joined by * are phosphorothioate-linked, units joined directly phosphodiester-linked; [ ] holds rarer units or linkages, { } end groups; capitals alone tell only the bases. e = 2'-O-(2-methoxyethyl) (MOE); k = constrained ethyl (cEt); [5mC] = 5-methylcytosine; d = 2'-deoxy (DNA)

Columns and labels:
human PKK mRNA [1] = test: Antisense inhibition of human PKK mRNA in HepaRG cells, 1,000 nM, MOE/deoxy/cEt oligonucleotides (Example 3); type: cell-based; settings: HepaRG cells, electroporation with 1,000 nM antisense oligonucleotide, approximately 24 hours, primer probe set RTS3454, relative to untreated control cells
Summary of the method: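 HepaRG cells at 20,000 per well electroporated with 1,000 nM 16-mer MOE/cEt/deoxy gapmers (phosphorothioate, 5-methylcytosine). After about 24 h, PKK mRNA measured by qRT-PCR with primer probe set RTS3454, normalized to RIBOGREEN total RNA. Reported as percent inhibition versus untreated cells.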

human PKK mRNA [2] = test: Human PKK mRNA in liver of human KLKB1 transgenic mice (Example 7); type: in vivo; settings: twice a week for 3 weeks
Summary of the method: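 Transgenic mice carrying a 37,390 bp human KLKB1 fragment dosed subcutaneously twice weekly for 3 weeks at 2.5, 5.0, 10 or 20 mg/kg/week; PBS controls. Liver harvested 48 h after the last dose. Human PKK mRNA measured by real-time PCR and expressed as % inhibition versus PBS.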

human PKK mRNA [3] = test: Dose-dependent antisense inhibition of human PKK in HepaRG cells, 0.11-3.00 uM (Example 6); type: cell-based; settings: electroporation, approx. 16 hours, relative to untreated control cells
Summary of the method: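 HepaRG cells were electroporated with antisense oligonucleotide at 0.11, 0.33, 1.00 or 3.00 μM. After about 16 h, PKK mRNA was quantified by qRT-PCR with primer probe set RTS3454 and normalized to total RNA by RIBOGREEN. IC50 was derived from the dose series.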

PKK mRNA = PKK mRNA in cynomolgus monkey liver (Example 8); type: in vivo; settings: 40 mg/kg s.c., loading then weekly to week 13; day 87 or 88, 48 h after final dose
Summary of the method: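 Cynomolgus monkeys were dosed with human antisense oligonucleotides cross-reactive with the rhesus sequence. Liver RNA taken on day 87 or 88, 48 h after the last dose, was assayed by real-time PCR (primer probe set RTS3455) and normalized to cyclophilin. Values are percent PKK mRNA inhibition versus PBS control.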

PKK protein [4] = test: Plasma PKK protein levels in human KLKB1 transgenic mice (Example 7); type: in vivo; settings: plasma, twice a week for 3 weeks
Summary of the method: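 Human KLKB1 transgenic mice dosed subcutaneously twice weekly for 3 weeks with antisense oligonucleotides at 2.5, 5.0, 10 or 20 mg/kg/week. Plasma collected 48 hours after the final dose; PKK protein expressed as percent inhibition relative to PBS-treated controls.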

[5] = cynomolgus monkey, in vivo, sc, 40 mg/kg
Protocol: (§1) Prior to the study, the monkeys were kept in quarantine for a 30-day period, during which the animals were observed daily for general health. The monkeys were 2-4 years old and weighed between 2 and 4 kg. Ten groups of four randomly assigned male cynomolgus monkeys each were injected subcutaneously with ISIS oligonucleotide or PBS. PBS solution or ISIS oligonucleotides at a dose of 40 mg/kg were administered initially with a loading regimen consisting of four doses on the first week of the study (days 1, 3, 5, and 7), followed by a maintenance regimen consisting of once weekly administration starting on Day 14 (weeks 2 to 13). Subcutaneous injections were performed in clock-wise rotations at 4 sites on the back; one site per dose. The injection sites were delineated by tattoo, while sedated using ketamine, and were separated by a minimum of 3 cm.
Kidney function was also assessed by urinalysis. Fresh urine from all animals was collected using a clean cage pan on wet ice. Food was removed overnight the day before fresh urine collection was done but water was supplied. The total protein and creatinine levels were measured using a Toshiba 120FR NEO automated chemistry analyzer (Toshiba Co., Japan) and the protein to creatinine ratio was calculated.

[6] = cynomolgus monkey, in vivo, sc, 40 mg/kg; remark: listed apart in the source
Protocol: as §1
To evaluate the effect of ISIS oligonucleotides on kidney function, the monkeys were fasted overnight. Approximately, 1.5 mL of blood samples were collected from all the study groups. Blood was collected in tubes without anticoagulant for serum separation. The tubes were kept at room temperature for a minimum of 90 min and then centrifuged at 3,000 rpm for 10 min. Levels of BUN and creatinine were measured using a Toshiba 120FR NEO chemistry analyzer (Toshiba Co., Japan).

[7] = cynomolgus monkey, in vivo, sc, 40 mg/kg; remark: listed apart in the source
[8] = cynomolgus monkey, in vivo, sc, 40 mg/kg; remark: listed apart in the source
Protocol: as §1
To evaluate the effect of ISIS oligonucleotides on hepatic function, the monkeys were fasted overnight. Approximately, 1.5 mL of blood samples were collected from all the study groups. Blood was collected in tubes without anticoagulant for serum separation. The tubes were kept at room temperature for a minimum of 90 min and then centrifuged at 3,000 rpm for 10 min. Levels of various liver function markers were measured using a Toshiba 120FR NEO chemistry analyzer (Toshiba Co., Japan).

PKK protein [9] = test: PKK protein in cynomolgus monkey plasma by ELISA (Example 8); type: in vivo; settings: 40 mg/kg sc
Protocol: Approximately 0.9 mL of blood was collected each time from all available animals at pre-dose, day 17, day 31, day 45, day 59, and day 73, and placed in tubes containing 3.2% sodium citrate. The tubes were centrifuged (3000 rpm for 10 min at room temperature) to obtain plasma. PKK protein levels were measured in the plasma by ELISA. The results are presented in Table 52, expressed as percentage inhibition compared to the PBS control levels.

[10] = cynomolgus monkey, in vivo, sc, 40 mg/kg; remark: listed apart in the source
Protocol: as §1
To evaluate any inflammatory effect of ISIS oligonucleotides in cynomolgus monkeys, the monkeys were fasted overnight. Approximately, 1.5 mL of blood samples were collected from all the study groups. Blood was collected in tubes without anticoagulant for serum separation. The tubes were kept at room temperature for a minimum of 90 min and then centrifuged at 3,000 rpm for 10 min. C-reactive protein (CRP), which is synthesized in the liver and which serves as a marker of inflammation, was measured using a Toshiba 120FR NEO chemistry analyzer (Toshiba Co., Japan). Complement C3 was also measured similarly, and the data is presented as a percentage of baseline values.

Substance | Urine protein/creatinine ratio [5] | Plasma BUN [6] [mg/dL] | Plasma Creatinine [6] [mg/dL] | HCT [7] [%] | Hemoglobin [7] [g/dL] | Platelets [7] [µL⁻¹] | RBC [7] [µL⁻¹] | WBC [7] [µL⁻¹] | ALT [8] [IU/L] | AST [8] [IU/L] | Albumin [8] [g/dL] | PKK protein level reduction (%) in plasma relative to control levels (PKK protein [9]; Day 17) [%] | PKK protein level reduction (%) in plasma relative to control levels (PKK protein [9]; Day 31) [%] | PKK protein level reduction (%) in plasma relative to control levels (PKK protein [9]; Day 45) [%] | PKK protein level reduction (%) in plasma relative to control levels (PKK protein [9]; Day 59) [%] | PKK protein level reduction (%) in plasma relative to control levels (PKK protein [9]; Day 73) [%] | C3 (% of baseline) [10] | CRP [10] [mg/dL] | further results
548048 (e[5mC]*eG*kA*dT*dA*dT*d[5mC]*dA*dT*dG*dA*dT*dT*k[5mC]*k[5mC]*e[5mC]) [compound 548048] |  |  |  |  |  |  |  |  |  |  |  |  |  |  |  |  |  |  | % inhibition (human PKK mRNA [1]; experiment of Table 24): 84%; % inhibition of PKK mRNA in the transgenic mice liver relative to the PBS control (human PKK mRNA [2]; 2.5 mg/kg/week sc): 7%; % inhibition of PKK mRNA in the transgenic mice liver relative to the PBS control (human PKK mRNA [2]; 5 mg/kg/week sc): 77%; % inhibition of PKK mRNA in the transgenic mice liver relative to the PBS control (human PKK mRNA [2]; 10 mg/kg/week sc): 72%; % inhibition of PKK mRNA in the transgenic mice liver relative to the PBS control (human PKK mRNA [2]; 20 mg/kg/week sc): 80%; percent inhibition of PKK mRNA, 0.11 μM (human PKK mRNA [3]): 49%; percent inhibition of PKK mRNA, 0.33 μM (human PKK mRNA [3]): 66%; percent inhibition of PKK mRNA, 1.00 μM (human PKK mRNA [3]): 86%; percent inhibition of PKK mRNA, 3.00 μM (human PKK mRNA [3]): 92%; % inhibition of PKK mRNA in the cynomolgus monkey liver relative to the PBS control (PKK mRNA): 95%; % inhibition of PKK protein levels in the transgenic mice relative to the PBS control (PKK protein [4]; 2.5 mg/kg/week sc): 23%; % inhibition of PKK protein levels in the transgenic mice relative to the PBS control (PKK protein [4]; 5 mg/kg/week sc): 70%; % inhibition of PKK protein levels in the transgenic mice relative to the PBS control (PKK protein [4]; 10 mg/kg/week sc): 89%; % inhibition of PKK protein levels in the transgenic mice relative to the PBS control (PKK protein [4]; 20 mg/kg/week sc): 98%
ISIS 547927: antisense oligonucleotide targeting human PKK; sequence in a table not shown (ATGGTCCGACACACAA; deoxy, MOE and cEt modifications, further chemistry not given here) | 0.04 | 22.3 | 1.0 | 41 | 12.5 | 461000 | 5.2e+06 | 45000 | 61 | 59 | 4.2 | 8 | 0 | 15 | 10 | 18 | 73 % of baseline | 0.2 | 
ISIS 546232: antisense oligonucleotide targeting human PKK; sequence in a table not shown (antisense AGGAACTTGGTGTGCCACTT; 5-10-5 MOE gapmer, further chemistry not given here) | 0.03 | 22.7 | 1.0 | 42 | 12.9 | 391000 | 5.4e+06 | 11000 | 140 | 63 | 4.1 | 53 | 58 | 72 | 75 | 70 | 50 % of baseline | 0.5 | 
547927 (eA*eT*kG*dG*dT*d[5mC]*d[5mC]*dG*dA*d[5mC]*dA*d[5mC]*dA*k[5mC]*kA*eA) [compound 547927] |  |  |  |  |  |  |  |  |  |  |  |  |  |  |  |  |  |  | % inhibition (human PKK mRNA [1]; experiment of Table 23): 79%; % inhibition of PKK mRNA in the transgenic mice liver relative to the PBS control (human PKK mRNA [2]; 2.5 mg/kg/week sc): 35%; % inhibition of PKK mRNA in the transgenic mice liver relative to the PBS control (human PKK mRNA [2]; 5 mg/kg/week sc): 52%; % inhibition of PKK mRNA in the transgenic mice liver relative to the PBS control (human PKK mRNA [2]; 10 mg/kg/week sc): 93%; % inhibition of PKK mRNA in the transgenic mice liver relative to the PBS control (human PKK mRNA [2]; 20 mg/kg/week sc): 71%; percent inhibition of PKK mRNA, 0.11 μM (human PKK mRNA [3]): 56%; percent inhibition of PKK mRNA, 0.33 μM (human PKK mRNA [3]): 64%; percent inhibition of PKK mRNA, 1.00 μM (human PKK mRNA [3]): 92%; percent inhibition of PKK mRNA, 3.00 μM (human PKK mRNA [3]): 88%; % inhibition of PKK mRNA in the cynomolgus monkey liver relative to the PBS control (PKK mRNA): 54%; % inhibition of PKK protein levels in the transgenic mice relative to the PBS control (PKK protein [4]; 2.5 mg/kg/week sc): 25%; % inhibition of PKK protein levels in the transgenic mice relative to the PBS control (PKK protein [4]; 5 mg/kg/week sc): 21%; % inhibition of PKK protein levels in the transgenic mice relative to the PBS control (PKK protein [4]; 20 mg/kg/week sc): 80%
ISIS 547457: antisense oligonucleotide targeting nucleobases 30570-30610 of SEQ ID NO: 10; sequence in a table not shown (AAGGCGATATCATGATTCCC; 5-10-5 MOE gapmer, further chemistry not given here) | 0.03 | 24.3 | 1.0 | 45 | 13.8 | 367000 | 6.4e+06 | 10000 | 52 | 54 | 4.0 | 68 | 75 | 79 | 76 | 80 | 53 % of baseline | 0.3 | 
ISIS 547455: antisense oligonucleotide targeting nucleobases 30570-30610 of SEQ ID NO: 10; sequence in a table not shown (ATATCATGATTCCCTTCTGA; 5-10-5 MOE gapmer, further chemistry not given here) | 0.70 | 29.4 | 0.9 | 34 | 10.2 | 448000 | 4.5e+06 | 13000 | 61 | 56 | 3.8 | 26 | 33 | 43 | 58 | 58 | 64 % of baseline | 1.9 | 
ISIS 546828: gapmer targeting human PKK, selected from earlier screens; sequence in a table not shown (ACAGTATCACTGTACTAGTT; gapmer, wing chemistry not given here) | 0.03 | 24.7 | 0.9 | 43 | 12.9 | 408000 | 6e+06 | 11000 | 67 | 75 | 3.7 | 0 | 8 | 23 | 39 | 39 | 56 % of baseline | 0.6 | 
